Data set [1] relates to Lung cancer cell line NCI-H358 containing KRas G12C mutation. As to the kind of experiment: Assay for cell proliferation (Cell-titer Glo, 5 days). It is filed as cell-based, human. Put shortly:
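NCI-H358 (KRas G12C) cells, 2000 per well, attached overnight at 37 °C, 5% CO2, then treated with compound for 5 days at 0.5% DMSO final. Proliferation measured by CellTiter-Glo luminescence after 10 min at RT.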

The nature of data set [2]: Human hepatocyte clearance study. In kind it is in vitro ADME. Particulars: human, pooled cryopreserved human hepatocytes (suspension), working cell density 2 × 10^6 viable cells/mL. The method, then:
(§1) The in vitro human hepatocyte clearance of compounds described here was studied using pooled human hepatocytes purchased from BioreclamationIVT (Westbury, NY, Cat #X008001, Lot #TQJ). The assay was conducted according to manufacturer's instruction. Briefly, 10 mM stock solutions of test compounds and positive control (Verapamil) were prepared in 100% DMSO. Thawing media (50 mL) used in the study consists of 31 mL Williams E medium (GIBCO Cat #12551-032), 15 mL isotonic percoll (GE Healthcare Cat #17-0891-09), 500 uL 100× GlutaMax (GIBCO Cat #35050), 750 uL HEPES (GIBCO Cat #15630-080), 2.5 mL FBS (Corning Cat #35-076-CVR), 50 uL human insulin (GIBCO Cat #12585-014) and 5 uL dexamethasone (NICPBP). Incubation media is made of Williams E medium supplemented with 1× GlutaMax. Both thawing medium and incubation medium (serum-free) were placed in a 37° C. water bath for at least 15 minutes prior to use. Compound stock solutions were diluted to 100 μM by combining 198 μL of 50% acetonitrile/50% water and 2 μL of 10 mM stock solution. Verapamil was use as positive control in the assay. Vials of cryopreserved hepatocytes were removed from storage and thawed in a 37° C. water bath with gentle shaking. Contents of the vial were poured into the 50 mL thawing medium conical tube. Vials were centrifuged at 100 g for 10 minutes at room temperature. […] […] […] The boiled hepatocytes were used to prepare negative samples. Aliquots of 198 μL hepatocytes were dispensed into each well of a 96-well non-coated plate. The plate was placed in the incubator on an orbital shaker at 500 rpm for approximately 10 minutes. Aliquots of 2 μL of the 100 μM test compound or positive control were added into respective wells of the non-coated 96-well plate to start the reaction. This assay was performed in duplicate. The plate was incubated in the incubator on an orbital shaker at 500 rpm for the designated time points. Twenty-five microliter of contents were transferred and mixed with 6 volumes (150 μL) of cold acetonitrile with IS (200 nM imipramine, 200 nM labetalol and 200 nM diclofenac) to terminate the reaction at time points of 0, 15, 30, 60, 90 and 120 minutes. Samples were centrifuged at 3,220 g for 25 minutes and aliquots of 150 μL of the supernatants were used for LC-MS/MS analysis. For data analysis, all calculations were carried out using Microsoft Excel. Peak areas were determined from extracted ion chromatograms. The in vitro half-life (t1/2) of parent compound was determined by regression analysis of the percent parent disappearance vs. time curve. […] Scaling factors for in vivo intrinsic clearance prediction using human hepatocytes are listed as: liver weight (g liver/kg body weight): 25.7; hepatocyte concentration (10^6 cells/g liver): 99; scaling factor: 2544.3.

The test system of the next data set is pooled human hepatocytes. As to the kind of experiment: Human hepatocyte clearance study. It is filed as in vitro ADME. The method, then:
as §1

A short description of data set [3]: Rat PK study, single i.g. dose. Conditions: female, SD, plasma, PO, 10 mg/kg. It is filed as in vivo. The method, then:
The pharmacokinetic (PK) profile of compounds following single i.g in SD rat obtained from […] Laboratory Animal Co., LTD of Shanghai was determined. Three female rats of weight around 220 g were used. Compounds were prepared at 1 mg/ml with the formulation of 10% DMSO+10% solutol HS15+80% (10% HPβCD in water). Blood samples (0.2 mL) were collected at 0 h (pre-dose) and 0.25, 0.5, 1, 2, 4, 8, 24 h time points after administration of compounds at the dose of 10 mg/kg. The collected blood samples were centrifuged without delay and the plasma was separated and transferred into tubes before storage at -70° C. prior to analysis. Aliquots of the plasma unknowns, blank and calibration standards were placed in 1.5 mL tubes and mixed with acetonitrile/methanol (1/1, v/v) containing IS. After vortexing for 5 min, each sample was centrifuged at 14000 rpm at 4° C. for 10 min. The supernatant were injected into the LC-MS/MS system. […] Eluates were analyzed using an API4000 Q-Trap mass spectrometer with a TurboIonSpray interface. Chromatographic separation was done with a mobile phase composed of water with 0.1% formic acid (solution A) and acetonitrile with 0.1% formic acid (solution B). The mobile phase was delivered at a flow rate of 0.6 mL/min, using a stepwise gradient elution program. To improve the sensitivity of the test compound screening, a MRM method in positive electrospray ionization mode was employed. Mass spectrometry data was acquired and analyzed using AB Sciex Analyst version 1.6.2 software. The pharmacokinetic parameters were derived using standard noncompartmental methods with Phoenix WinNonLin Professional Version 8.1.

For another data set, the system named is SW837 xenograft. As to the kind of experiment: Colorectal adenocarcinoma SW837 xenograft model, tumor volume. It is filed as in vivo, BALB/c nude mice. The method, then:
(§2) All the procedures related to animal handling, care and the treatment in this study were performed according to the guidelines approved by the Institutional Animal Care and Use Committee (IACUC) of SIPPER B&K following the guidance of the Association for Assessment and Accreditation of Laboratory Animal Care (AAALAC). At the time of routine monitoring, the animals were checked for any effects of tumor growth on normal behavior such as mobility, food and water consumption (by looking only), body weight gain/loss (body weights were measured twice weekly), eye/hair matting and any other abnormal effect. Death and observed clinical signs were recorded on the basis of the numbers of animals within each subset.
(§3) The NCI-H358, SW837, NCI-H2122 tumor cells were purchased from the American Type Culture Collection (ATCC). Cells were maintained in vitro as monolayer cultured in RPMI-1640 or DMEM medium supplemented with 10% fetal bovine serum, 50 IU/ml penicillin/streptomycin (GIBCO) at 37° C. in an atmosphere of 5% CO2 in air. The tumor cells were routinely sub cultured twice weekly by trypsin-EDTA treatment. The cells growing in an exponential growth phase were harvested and counted for tumor inoculation.
(§4) For tumor bearing models, female 6- to 8-week-old athymic BALB/c nude mice were used for human cancer cell lines. Each mouse was inoculated subcutaneously at the right flank with tumor cells (10×10^6) in 0.1 ml of PBS. The treatments were started when the average tumor size reached approximately 200-250 mm^3. Carboplatin, Cisplatin was injected twice a week by i.p. Vehicles and other test articles were given orally as a suspension by gavage once daily during the study or treatment period.
(§5) Tumor volume was calculated by measuring two perpendicular diameters using the following formula: (L×W 2)/2 in which L and W refer to the length and width tumor diameter, respectively. Results are expressed as mean and standard deviation of the mean.

For the next data set, the system named is NCI-H358 xenograft. As to the kind of experiment: NSCLC H358 xenograft model, tumor volume. It is filed as in vivo, BALB/c nude mice. Conditions: 30 mg/kg oral once daily vs AMG510 at 30 mg/kg; FIG. 2. The method, then:
as §2, §3, §4, §5

Consider `C=CC(=O)N1C[C@H](C)N(c2nc(=O)n(-c3c(C4CC4)ncnc3C3CC3)c3nc(-c4c(N)cccc4F)c(F)cc23)C[C@H]1C` [Compound 44], for which the “potency in inhibiting KRAS G12C compared with corresponding isopropyl analogs” value in data set [1] was “better potency”. Also, the IC50 in data set [1] (Homo sapiens, NCI-H358, 120 h, read-out: IC50 (nM), Inhibition of NCI-H358 Cell Proliferation) was 2.1 nM. Also, the “fold more potent: 2-amino-6-fluoro-phenyl compound vs. corresponding 2-fluoro-phenyl compound at R8” value in data set [1] (NCI-H358 IC50 comparison) was “about 19 ×”. For the same compound, the hepatocyte CLint at 1 µM in data set [2] (read-out: Human In vitro Clint (μl/min/10^6 cells)) came out at 4 µL/min/1e6 cells. Further, in data set [2] (read-out: Human In vitro T1/2), the half-life at 1 µM is 172 min. Moreover, the CLint scaled at 1 µM in data set [2] (read-out: Human Scale-up Clint) stood at 10.2 mL/min/kg. In the data set with pooled human hepatocytes, the “human hepatocyte clearance profile compared to control compounds” value is on record as “better human hepatocyte clearance profile”. In addition, the “Human Hepatocyte Remaining Percentage @ 120 min (%)” value with pooled human hepatocytes (working cell density 2 × 10^6 viable cells/mL) worked out at 61.7%. For the same compound, the AUC(0-t) in data set [3] (read-out: Rat PO (10 mpk) AUC last) was 4.3 µM·h. In data set [3] (read-out: Rat PO (10 mpk) Cmax), the Cmax is 1380 nM. Besides, the bioavailability in data set [3] (read-out: Rat PO (10 mpk) F %) came to 71%. For the same compound, the “reducing tumor volume compared with AMG510” value is on record as “more effective than AMG510” in the data set with SW837 xenograft (60 mg/kg oral once daily vs AMG510 at 60 mg/kg, FIG. 1) and “more effective than AMG510” in the data set on NCI-H358 xenograft. Further, in the data set with SW837 xenograft (Compound 44 at 30 mg/kg combined with trametinib at 1 mg/kg, FIG. 6), the “reduction of tumor volume, combined treatment vs either agent alone” value is “much better reduction of tumor volume”.

Usually Cmax stands for the peak of the concentration-time curve.

Values taken from patent US12110289B2, “Heterocyclic compounds, preparation methods and uses thereof” (InventisBio Co., Ltd., priority 2020, dated 2024).
